The values below come from US20260256790A1, “DEBIO-0123 IN COMBINATION WITH TEMOZOLOMIDE AND RADIOTHERAPY FOR USE IN TREATING GLIOMA” (Debiopharm International S.A., priority 2023, published 2026).

SMILES strings stand for the structures. Several values for one entry are separate records, joined by “and”; a condition that tells them apart may be missing. Equal values may be shown once. Read-outs that look alike come from different tables or passages of the source.

The series can be described thus: Drug concentration in monkey brain and plasma after daily oral administration for 91 days. In kind it is in vivo, cynomolgus monkeys. The settings on record: 10 mg/kg oral once a day for 91 days; for Kp at 24 h / concentration at 24 h: female, cynomolgus monkey, 10 mg/kg; for Kp at 24 h: brain (left forebrain) / plasma, po; for concentration at 24 h: oral. On the procedure:
Compound of formula (I) was orally given to 3 female cynomolgus monkeys by gavage once a day for 91 days. The volume of administration was 5 mL/kg, and the vehicle was an aqueous solution of 0.5% (w/v) methylcellulose (cps 400) and 1% (w/v) Tween 80. The Compound of formula (I) dose was 10 mg/kg; this dose level was assessed in this study to be the […] no adverse effect level (NOAEL) based on general toxicology evaluation. The animals were necropsied 24 hours after the last dose after an overnight period without food. A sample from brain tissue (left forebrain) was collected from each animal, snap frozen in liquid nitrogen. and stored frozen at <−50° C. Blood samples were taken from the femoral vein into tubes containing K2EDTA, fully inverted approximately 10 times, and placed on crushed wet ice until centrifugation at 2300 g for 10 minutes at approximately 4° C. The resultant plasma was separated, transferred into polypropylene tubes, and frozen at <−50° C. Tissue and plasma samples were transported frozen on dry ice to the respective sites of analysis.
The monkey plasma samples were analyzed for their contents in Compound of formula (I) and N^32-desmethyl-Compound of formula (I) as follows. The plasma samples were fortified in human K2-EDTA plasma (1:9 monkey:human volume ratio) prior to extraction. All solution preparations and dilutions were conducted under sodium vapor light and in “low-binding” quality polypropylene tubes and deep-well plates. The analytes and internal standards (^13CD6-Compound of formula (I) and D7-N^32-desmethyl-Compound of formula (I)) were extracted by protein precipitation with 5M aqueous urea (40 μL for 50 μL plasma), and then analyzed by LC-MS/MS. Chromatographic separation was achieved on an Synergi Polar-RP, 80A, 4 μm 75×2.00 mm column (Phenomenex) with gradient elution using a mixture of 0.1% formic acid in water as eluent A and 0.1% formic acid in acetonitrile as eluent B (5% B from 0 to 0.50 min, 42% B at 4.5 min, 95% B from 4.60 min to 5.50 min, 5% B at 5.60 min, 100% B at 5.70 min, 5% B at 6.40 min, 100% B at 6.50 min, 5% B at 7.00 min; 800 μl/min, 70° C.). Detection was accomplished with a AB Sciex 6500+ mass spectrometer utilizing electrospray MS/MS in positive ion multiple reaction monitoring mode (MRM). The lower limits of quantification for Compound of formula (I) and N^32-desmethyl-Compound of formula (I) were 5.00 ng/mL and 2.50 ng/mL, respectively.
The monkey brain tissue samples were analyzed for their contents in Compound of formula (I) and N^32-desmethyl-Compound of formula (I) as follows. Tissue samples were homogenized in human plasma (1 mg tissue for 10 μL plasma) at +4° C. using a Precelly Evolution system. The analytes (Compound of formula (I) and N^32-desmethyl-Compound of formula (I)) were extracted by protein precipitation with methanol/acetonitrile (9:1, v:v) containing the internal standards (^13CD6-Compound of formula (I) and D7-N^32-desmethyl-Compound of formula (I)) and then analyzed by UHPLC-MS/MS. Chromatographic separation was achieved on a HSS T3 1.8 μm, 2.1×100 mme column (Waters) with gradient elution using a mixture of 0.1% formic acid in water as eluent A, and 0.1% formic acid in acetonitrile as eluent B (20% B from 0 to 0.50 min, 90% B from 1.80 min to 2.30 min, 20% B at 2.60 min; 0.6 mL/min, room temperature). Detection was accomplished with Xevo TQ-S mass spectrometer (Waters) utilizing electrospray MS/MS in positive ion multiple reaction monitoring mode (MRM). The lower limits of quantification for Compound of formula (I) and N^32-desmethyl-Compound of formula (I) were 55.00 ng/g tissue and 22.00 ng/g tissue, respectively.

Consider `Cc1cc(Nc2ncc3c(n2)N(C)CN(c2c(Cl)cccc2Cl)C3=O)ccc1C1CCN(C)CC1` [Compound of formula (I)], for which, for the setting “individual animals”, the “Brain:plasma concentration ratio, at 24 h post last dose” value was 4.18 and 4.57. Also, for the setting “individual animals”, the “Plasma concentration at 24 h post last dose” value was 929 ng/mL and 632 ng/mL. For the same compound, where the note is “left forebrain, individual animals”, the “Brain concentration at 24 h post last dose” value is 3885 ng/g tissue and 2886 ng/g tissue. In addition, the Kp at 24 h (individual animals, read-out: Brain:plasma concentration ratio, at 24 h post last dose) is 4.2 and the Kp at 24 h (read-out: Mean brain:plasma ratio (±SD), at 24 h post last dose (n = 3)) was determined as 4.32 ± 0.22. In addition, the concentration at 24 h by setting is: (brain (left forebrain), left forebrain, individual animals, read-out: Brain concentration at 24 h post last dose) 4790 ng/g; (plasma, individual animals, read-out: Plasma concentration at 24 h post last dose) 1140 ng/mL.
